Measured values taken from patent US20020137929A1, “1 - (3-heterocyclylphenyl) isothiourea, -isourea, -guanidine and -amidine herbicidal agents” (Intellectual Property Department, BASF Aktiengesellschaft, priority 1998, published 2002).

How the values were obtained:
ZEAMX (Corn, Field) [1] = experiment: Preemergence herbicidal evaluation; type: in vivo, Zea mays; conditions: rated 4-5 weeks after treatment
How it was run: (§1)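 Preemergence soil application of compound, sprayed in aqueous acetone at rates equivalent to about 0.0156 to 0.500 kg per hectare onto freshly sown cups. Plant response was judged by eye on a 0-9 scale four to five weeks later.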

ZEAMX (Corn, Field) [2] = experiment: Postemergence herbicidal evaluation; type: in vivo, Zea mays; conditions: postemergence
How it was run: (§2)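 Each compound, dispersed in an acetone/water mix (50/50) carrying 0.5% TWEEN 20, is nozzle-sprayed at 40 psi on approximately two-week-old seedlings at about 0.0156–0.500 kg/ha. Plants are assessed 4–5 weeks afterward on a 0–9 scale relative to control; duplicate tests are averaged.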

GALAP (Galium) = experiment: Preemergence herbicidal evaluation; type: in vivo, Galium aparine; conditions: rated 4-5 weeks after treatment
How it was run: as §1

AMBEL (Ragweed, Common) = experiment: Preemergence herbicidal evaluation; type: in vivo, Ambrosia artemisifolia; conditions: rated 4-5 weeks after treatment
How it was run: as §1

[3] = system: CHEAL (Lambsquarters, Common); experiment: Preemergence herbicidal evaluation; type: in vivo, Chenopodium album; conditions: rated 4-5 weeks after treatment
How it was run: as §1

SETVI (Foxtail, Green) = experiment: Preemergence herbicidal evaluation; type: in vivo, Setaria viridis; conditions: rated 4-5 weeks after treatment
How it was run: as §1

ORYSAT (Rice, Tebonnet) = experiment: Rice tolerance to post-transplant applications, flooded paddy conditions (Table III); type: in vivo, Oryza sativa, (L.) Tebonnet; conditions: in vivo
How it was run: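 Two ten-day-old Tebonnet seedlings transplanted into flooded silt loam (water 1.5 to 3 cm above soil); three days later the water surface was treated with compound in aqueous/acetone 50/50 at about 0.0313 to 0.500 kg/ha. Visual 0-9 injury rating versus control after three to four weeks in greenhouse.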

[4] = system: TRZAWR (Wheat, Winter, cv Riband); experiment: Postemergence herbicidal evaluation; type: in vivo, Triticum aestivum; conditions: postemergence
How it was run: as §2

ECHCG (Barnyardgrass) = experiment: Preemergence herbicidal evaluation; type: in vivo, Echinochloa crus-galli; conditions: rated 4-5 weeks after treatment
How it was run: as §1

[5] = system: IPOHE (Morningglory, Ivyleaf); experiment: Preemergence herbicidal evaluation; type: in vivo, Ipomoea hederacea; conditions: rated 4-5 weeks after treatment
How it was run: as §1

CASOB (Sicklepod) = experiment: Postemergence herbicidal evaluation; type: in vivo, Cassia obtusifolia; conditions: postemergence
How it was run: as §2

CYPSE (Flatsedge) = experiment: Preemergence weed control under flooded paddy conditions; type: in vivo, Cyperus serotinus; conditions: rated 3-4 weeks after treatment
How it was run: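 Ratings on a 0-9 visual scale cover stand, vigor, malformation, size, chlorosis and overall appearance relative to a control, taken three to four weeks post-treatment. Application was into flood water over freshly sown silt loam at roughly 0.0313 to 0.500 kg/ha.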

[6] = system: ECHORC (Watergrass (Calif.)); experiment: as above; type: in vivo, Echinochloa oryzoides; conditions: rated 3-4 weeks after treatment
How it was run: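 Seeds or propagules sown in top 0.5 cm of silt loam soil, flooded 1.5 to 3 cm above surface throughout. Compound in 50/50 v/v aqueous/acetone pipetted into flood water at about 0.0313 to 0.500 kg/ha. Visual 0-9 rating versus control after three to four weeks in greenhouse.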

CCOC(=O)CN1C(=O)C(Cc2ccccc2OCC(=O)O)S/C1=N/c1cc(-n2c(=O)cc(C(F)(F)F)n(C)c2=O)c(F)cc1Cl (stereo not shown) [Compound 113, 5-[o-(Carboxymethoxy)benzyl]-2-{{2-chloro-5-[3,6-dihydro-3-methyl-2,6-dioxo-4-(trifluoromethyl)-1(2H)-pyrimidinyl]-4-fluorophenyl}imino}-4-oxo-3-thiazolidineacetic acid, 3-ethyl ester]
5.0: ECHORC herbicidal effect rating ([6]; 0.1250 kg/ha)
2.0: Preemergence herbicidal rating AMBEL (AMBEL (Ragweed, Common); rate 0.2500 kg/ha) | Herbicidal rating TRZAWR ([4]; rate 0.0158 kg/ha) | Herbicidal rating TRZAWR ([4]; rate 0.0315 kg/ha)
4.0: Herbicidal rating ZEAMX (ZEAMX (Corn, Field) [2]; rate 0.0158 kg/ha) | Herbicidal rating CASOB (CASOB (Sicklepod); rate 0.0630 kg/ha) | ECHORC herbicidal effect rating ([6]; 0.0313 kg/ha) | ECHORC herbicidal effect rating ([6]; 0.0625 kg/ha)
1.0: Preemergence herbicidal rating ZEAMX (ZEAMX (Corn, Field) [1]; rate 0.0313 kg/ha) | Preemergence herbicidal rating ZEAMX (ZEAMX (Corn, Field) [1]; rate 0.2500 kg/ha) | Preemergence herbicidal rating GALAP (GALAP (Galium); rate 0.1250 kg/ha) | Preemergence herbicidal rating SETVI (SETVI (Foxtail, Green); rate 0.2500 kg/ha) | Preemergence herbicidal rating IPOHE ([5]; rate 0.2500 kg/ha)
6.0: Preemergence herbicidal rating CHEAL ([3]; rate 0.0156 kg/ha)
7.0: Preemergence herbicidal rating CHEAL ([3]; rate 0.0313 kg/ha) | ECHORC herbicidal effect rating ([6]; 0.2500 kg/ha)
9.0: Preemergence herbicidal rating CHEAL ([3]; rate 0.1250 kg/ha) | Preemergence herbicidal rating CHEAL ([3]; rate 0.2500 kg/ha)
4.5: Herbicidal rating ZEAMX (ZEAMX (Corn, Field) [2]; rate 0.0315 kg/ha) | Herbicidal rating ZEAMX (ZEAMX (Corn, Field) [2]; rate 0.0630 kg/ha)
3.0: Preemergence herbicidal rating GALAP (GALAP (Galium); rate 0.2500 kg/ha) | Herbicidal rating TRZAWR ([4]; rate 0.0630 kg/ha)
0.0: Preemergence herbicidal rating ZEAMX (ZEAMX (Corn, Field) [1]; rate 0.0156 kg/ha) | Preemergence herbicidal rating ZEAMX (ZEAMX (Corn, Field) [1]; rate 0.0625 kg/ha) | Preemergence herbicidal rating ZEAMX (ZEAMX (Corn, Field) [1]; rate 0.1250 kg/ha) | Preemergence herbicidal rating GALAP (GALAP (Galium); rate 0.0156 kg/ha) | Preemergence herbicidal rating GALAP (GALAP (Galium); rate 0.0313 kg/ha) | Preemergence herbicidal rating GALAP (GALAP (Galium); rate 0.0625 kg/ha) | Preemergence herbicidal rating AMBEL (AMBEL (Ragweed, Common); rate 0.0156 kg/ha) | Preemergence herbicidal rating AMBEL (AMBEL (Ragweed, Common); rate 0.0313 kg/ha) | Preemergence herbicidal rating AMBEL (AMBEL (Ragweed, Common); rate 0.0625 kg/ha) | Preemergence herbicidal rating AMBEL (AMBEL (Ragweed, Common); rate 0.1250 kg/ha) | Preemergence herbicidal rating CHEAL ([3]; rate 0.0625 kg/ha) | Preemergence herbicidal rating SETVI (SETVI (Foxtail, Green); rate 0.0156 kg/ha) | Preemergence herbicidal rating SETVI (SETVI (Foxtail, Green); rate 0.0313 kg/ha) | Preemergence herbicidal rating SETVI (SETVI (Foxtail, Green); rate 0.0625 kg/ha) | Preemergence herbicidal rating SETVI (SETVI (Foxtail, Green); rate 0.1250 kg/ha) | ORYSAT herbicidal effect rating (rice tolerance) (ORYSAT (Rice, Tebonnet)) | Preemergence herbicidal rating ECHCG (ECHCG (Barnyardgrass); rate 0.0156 kg/ha) | Preemergence herbicidal rating ECHCG (ECHCG (Barnyardgrass); rate 0.0313 kg/ha) | Preemergence herbicidal rating ECHCG (ECHCG (Barnyardgrass); rate 0.0625 kg/ha) | Preemergence herbicidal rating ECHCG (ECHCG (Barnyardgrass); rate 0.1250 kg/ha) | Preemergence herbicidal rating ECHCG (ECHCG (Barnyardgrass); rate 0.2500 kg/ha) | Preemergence herbicidal rating IPOHE ([5]; rate 0.0156 kg/ha) | Preemergence herbicidal rating IPOHE ([5]; rate 0.0313 kg/ha) | Preemergence herbicidal rating IPOHE ([5]; rate 0.0625 kg/ha) | Preemergence herbicidal rating IPOHE ([5]; rate 0.1250 kg/ha) | Herbicidal rating CASOB (CASOB (Sicklepod); rate 0.0158 kg/ha) | Herbicidal rating CASOB (CASOB (Sicklepod); rate 0.0315 kg/ha) | CYPSE herbicidal effect rating (CYPSE (Flatsedge); 0.0313 kg/ha) | CYPSE herbicidal effect rating (CYPSE (Flatsedge); 0.0625 kg/ha) | CYPSE herbicidal effect rating (CYPSE (Flatsedge); 0.1250 kg/ha) | CYPSE herbicidal effect rating (CYPSE (Flatsedge); 0.2500 kg/ha)

C#CCOC(=O)CN1C(=O)CSC1=Nc1cc(-n2c(=O)cc(C(F)(F)F)n(C)c2=O)c(F)cc1Cl [Compound 115, 2-Propynyl 2-{{2-chloro-5-[3,6-dihydro-3-methyl-2,6-dioxo-4-(trifluoromethyl)-1(2H)-pyrimidinyl]-4-fluorophenyl}imino}-4-oxo-3-thiazolidineacetate]
5.0: Herbicidal rating ZEAMX (ZEAMX (Corn, Field) [2]; rate 0.0158 kg/ha) | Preemergence herbicidal rating CHEAL ([3]; rate 0.0313 kg/ha) | ECHORC herbicidal effect rating ([6]; 0.1250 kg/ha) | ECHORC herbicidal effect rating ([6]; 0.2500 kg/ha)
6.0: CYPSE herbicidal effect rating (CYPSE (Flatsedge); 0.2500 kg/ha)
3.0: Preemergence herbicidal rating GALAP (GALAP (Galium); rate 0.0313 kg/ha) | Preemergence herbicidal rating GALAP (GALAP (Galium); rate 0.0625 kg/ha) | Herbicidal rating TRZAWR ([4]; rate 0.0630 kg/ha)
7.0: Herbicidal rating ZEAMX (ZEAMX (Corn, Field) [2]; rate 0.0630 kg/ha) | Preemergence herbicidal rating GALAP (GALAP (Galium); rate 0.1250 kg/ha) | Preemergence herbicidal rating CHEAL ([3]; rate 0.0625 kg/ha) | Preemergence herbicidal rating IPOHE ([5]; rate 0.2500 kg/ha)
4.0: Preemergence herbicidal rating SETVI (SETVI (Foxtail, Green); rate 0.2500 kg/ha) | ECHORC herbicidal effect rating ([6]; 0.0313 kg/ha) | ECHORC herbicidal effect rating ([6]; 0.0625 kg/ha)
2.0: Preemergence herbicidal rating ZEAMX (ZEAMX (Corn, Field) [1]; rate 0.2500 kg/ha) | Preemergence herbicidal rating IPOHE ([5]; rate 0.1250 kg/ha)
2.5: Herbicidal rating TRZAWR ([4]; rate 0.0315 kg/ha)
6.5: Herbicidal rating ZEAMX (ZEAMX (Corn, Field) [2]; rate 0.0315 kg/ha)
1.0: Preemergence herbicidal rating ZEAMX (ZEAMX (Corn, Field) [1]; rate 0.1250 kg/ha) | Preemergence herbicidal rating GALAP (GALAP (Galium); rate 0.0156 kg/ha) | Preemergence herbicidal rating AMBEL (AMBEL (Ragweed, Common); rate 0.2500 kg/ha) | Preemergence herbicidal rating SETVI (SETVI (Foxtail, Green); rate 0.0156 kg/ha) | Herbicidal rating CASOB (CASOB (Sicklepod); rate 0.0315 kg/ha) | Herbicidal rating CASOB (CASOB (Sicklepod); rate 0.0630 kg/ha)
9.0: Preemergence herbicidal rating GALAP (GALAP (Galium); rate 0.2500 kg/ha) | Preemergence herbicidal rating CHEAL ([3]; rate 0.1250 kg/ha) | Preemergence herbicidal rating CHEAL ([3]; rate 0.2500 kg/ha)
0.0: Preemergence herbicidal rating ZEAMX (ZEAMX (Corn, Field) [1]; rate 0.0156 kg/ha) | Preemergence herbicidal rating ZEAMX (ZEAMX (Corn, Field) [1]; rate 0.0313 kg/ha) | Preemergence herbicidal rating ZEAMX (ZEAMX (Corn, Field) [1]; rate 0.0625 kg/ha) | Preemergence herbicidal rating AMBEL (AMBEL (Ragweed, Common); rate 0.0156 kg/ha) | Preemergence herbicidal rating AMBEL (AMBEL (Ragweed, Common); rate 0.0313 kg/ha) | Preemergence herbicidal rating AMBEL (AMBEL (Ragweed, Common); rate 0.0625 kg/ha) | Preemergence herbicidal rating AMBEL (AMBEL (Ragweed, Common); rate 0.1250 kg/ha) | Preemergence herbicidal rating SETVI (SETVI (Foxtail, Green); rate 0.0313 kg/ha) | Preemergence herbicidal rating SETVI (SETVI (Foxtail, Green); rate 0.0625 kg/ha) | Preemergence herbicidal rating SETVI (SETVI (Foxtail, Green); rate 0.1250 kg/ha) | Preemergence herbicidal rating ECHCG (ECHCG (Barnyardgrass); rate 0.0156 kg/ha) | Preemergence herbicidal rating ECHCG (ECHCG (Barnyardgrass); rate 0.0313 kg/ha) | Preemergence herbicidal rating ECHCG (ECHCG (Barnyardgrass); rate 0.0625 kg/ha) | Preemergence herbicidal rating ECHCG (ECHCG (Barnyardgrass); rate 0.1250 kg/ha) | Preemergence herbicidal rating ECHCG (ECHCG (Barnyardgrass); rate 0.2500 kg/ha) | Preemergence herbicidal rating IPOHE ([5]; rate 0.0156 kg/ha) | Preemergence herbicidal rating IPOHE ([5]; rate 0.0313 kg/ha) | Preemergence herbicidal rating IPOHE ([5]; rate 0.0625 kg/ha) | Herbicidal rating CASOB (CASOB (Sicklepod); rate 0.0158 kg/ha) | CYPSE herbicidal effect rating (CYPSE (Flatsedge); 0.0313 kg/ha) | CYPSE herbicidal effect rating (CYPSE (Flatsedge); 0.0625 kg/ha)
1.5: Herbicidal rating TRZAWR ([4]; rate 0.0158 kg/ha)
